Values quoted from earlier work, collected in patent US8097283B2, “Methods and compositions for imaging” (Mount Sinai School of Medicine, priority 2004, dated 2012).
Read-outs that look alike come from different tables or passages of the source.

Key:
[1] = 0.5 T, 37° C.
[2] = not given; remark: listed apart in the source
[3] = mouse

| r1 [1] [mM⁻¹ s⁻¹] | Molecule | further results |
| --- | --- | --- |
| 3.6 | O=C([O-])CN1CCN(CC(=O)[O-])CCN(CC(=O)[O-])CCN(CC(=O)[O-])CC1.[Gd+3] [Gadoterate, Gd-DOTA] | – |
| 3.6 | O=C([O-])CN1CCN(CC(=O)[O-])CCN([C@H](CO)[C@H](O)CO)CCN(CC(=O)[O-])CC1.[Gd+3] (racemic) [Gadobutrol, Gd-DO3A-butrol] | – |
| 3.7 | Gd-HPDO3A [Gadoteridol] | – |
| 4.7 | Gd-DTPA-BMEA [Gadoversetamide] | – |
| 3.8 | O=C([O-])CN(CCN(CC(=O)[O-])CC(=O)O)CCN(CC(=O)[O-])CC(=O)O.[Gd+3] [Gadopenetate, Gd-DTPA] | Viscosity (concentration 0.5M): 2.9 cP; Osmolality ([2]; concentration 0.5M): 1.96 osmol/kg |
| 4.4 | CNC[C@H](O)[C@@H](O)[C@H](O)[C@H](O)CO.CNC[C@H](O)[C@@H](O)[C@H](O)[C@H](O)CO.O=C([O-])CN(CCN(CC(=O)[O-])CC(=O)O)CCN(CC(=O)O)C(COCc1ccccc1)C(=O)[O-].[Gd+3] (stereo not drawn) [Gadobenate, Gd-BOPTA] | – |
| – | HDL-apoAI: apoAI moiety of HDL in the circulation of a mouse (protein, UniProt Q00623 25-264, looked up) Apolipoprotein A-I: DEPQSQWDKVKDFANVYVDAVKDSGRDYVSQFESSSLGQQLNLNLLENWDTLGSTVSQLQERLGPLTRDFWDNLEKETDWVRQEMNKDLEEVKQKVQPYLDEFQKKWKEDVELYRQKVAPLGAELQESARQKLQELQGRLSPVAEEFRDRMRTHVDSLRTQLAPHSEQMRESLAQRLAELKSNPTLNEYHTRAKTHLKTLGEKARPALEDLRHSLMPMLETLKTQVQSVIDKASETLTAQ | t1/2 in the circulation [3]: roughly 10 h |

| Molecule | r1 [1] [mM⁻¹ s⁻¹] | further results |
| --- | --- | --- |
| Mn-DPDP [Mangafodipir] | 1.9 | Viscosity (concentration 0.01M): 0.7 cP; Osmolality ([2]; concentration 0.01M): 0.29 osmol/kg |
